Patent publication US20090324513A1, “Process for Producing Chlorinated Sucrose” (Pharmed Medicare Private Limited, priority 2004, published 2009)
Where “and” joins values, the source holds several entries; their conditions need not be identical. Equal values may be shown once. Values belong to the molecule of their own block, whether it stands above or below them.

What was measured:
[1] = Particle size evaluated in Microtrac-X100 equipment; format: physicochemical; conditions: for Particle size: other batches, ethyl acetate crystallization
Description: The particle size was evaluated in Microtrac—X100 equipment.

[2] = Solubility test of product batch; format: physicochemical; conditions: result against specification: Soluble in ethanol and water. Slightly soluble in ethyl acetate

Structure (SMILES): OC[C@H]1O[C@H](O[C@]2(CCl)O[C@H](CCl)[C@@H](O)[C@@H]2O)[C@H](O)[C@@H](O)[C@H]1Cl [PP 02]
Particle size ([1]; 90% of particles): 90% ≦ 9.125 microns

Structure (SMILES): OC[C@H]1O[C@H](O[C@]2(CCl)O[C@H](CCl)[C@@H](O)[C@@H]2O)[C@H](O)[C@@H](O)[C@H]1Cl [PP 03]
Particle size ([1]; 90% of particles): 90% ≦ 9.165 microns

Further lines, results first:

Particle size ([1]; 90% of particles): 90% ≦ 9.035 microns
Structure (SMILES): OC[C@H]1O[C@H](O[C@]2(CCl)O[C@H](CCl)[C@@H](O)[C@@H]2O)[C@H](O)[C@@H](O)[C@H]1Cl [PRO 01]

Particle size ([1]; 90% of particles): 90% ≦ 9.183 microns
Structure (SMILES): OC[C@H]1O[C@H](O[C@]2(CCl)O[C@H](CCl)[C@@H](O)[C@@H]2O)[C@H](O)[C@@H](O)[C@H]1Cl [PRO 05]

Solubility [2]: Complies | individual crystal particle size at percentage ([1]; 10% of particles): 0.956 microns | individual crystal particle size at percentage ([1]; 20% of particles): 1.541 microns | individual crystal particle size at percentage ([1]; 30% of particles): 2.093 microns | individual crystal particle size at percentage ([1]; 40% of particles): 2.605 microns | individual crystal particle size at percentage ([1]; 50% of particles): 3.274 microns | individual crystal particle size at percentage ([1]; 60% of particles): 4.236 microns | individual crystal particle size at percentage ([1]; 70% of particles): 5.311 microns | individual crystal particle size at percentage ([1]; 80% of particles): 6.615 microns | individual crystal particle size at percentage ([1]; 90% of particles, listed as crystallized product): below 9.185 microns and 9.185 microns | individual crystal particle size at percentage ([1]; 95% of particles): 11.51 microns
Structure (SMILES): OC[C@H]1O[C@@H](O[C@]2(CCl)O[C@H](CCl)[C@@H](O)[C@@H]2O)[C@H](O)[C@@H](O)[C@H]1Cl [conventional crystallization batch, 1′,6′-Dichloro-1′,6′-Dideoxy-â-D-Fructo-Furanosyl-4-Chloro-4-Deoxy-â-D-Galactopyranoside]
